# Data as given in ChEMBL document CHEMBL1201862, “PubChem BioAssay data set” (2004).
# Active and inactive are the calls of the source.
# Tests used:
# [1] = target: NAD-dependent protein deacylase sirtuin-5, mitochondrial (Homo sapiens, UniProt Q9NXA8); assay: SIRT5 desuccinylase inhibitors, dose response, biochemical, fluorescence imaging, cherry-pick, set 5 (AID 720591);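 note: desuccinylation of succinyl peptide AMC substrate read as fluorescence after trypsin release; potency of inhibitors that lower fluorescence and may act on trypsin instead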
# Chain of NAD-dependent protein deacylase sirtuin-5, mitochondrial (Q9NXA8 whole entry): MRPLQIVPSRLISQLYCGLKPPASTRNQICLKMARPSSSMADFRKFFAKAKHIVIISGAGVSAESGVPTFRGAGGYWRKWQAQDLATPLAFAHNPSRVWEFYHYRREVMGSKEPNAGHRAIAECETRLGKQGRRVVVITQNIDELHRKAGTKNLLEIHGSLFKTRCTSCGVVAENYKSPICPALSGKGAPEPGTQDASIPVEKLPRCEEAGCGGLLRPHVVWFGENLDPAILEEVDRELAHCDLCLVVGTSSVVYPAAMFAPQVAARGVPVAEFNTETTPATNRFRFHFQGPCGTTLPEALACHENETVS
# [2] = P. falciparum 3D7-ScDHODH growth inhibitors, dose response, SYBR Green, dry powder samples (AID 1159570); type: functional, cell-based;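 note: parasite growth measured after 72 hours of compound exposure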
# [3] = HepG2 cell cytotoxicity, dose response, cytotoxicity control, plate reader, dry powder samples (AID 1159569); type: functional, cell-based;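 note: inhibitor potency with signal falling toward the positive control level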
# [4] = P. falciparum Dd2 growth inhibitors, dose response, SYBR Green, dry powder samples, set 9 (AID 1159568); type: functional, cell-based
# [5] = P. falciparum Dd2 growth inhibitors, dose response, SYBR Green, dry powder samples (AID 1159566); type: functional, cell-based;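 note: potency for growth inhibition with lower SYBR green DNA signal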
# [6] = P. falciparum ATP4 D1247Y mutant growth inhibitors, dose response, NITD609-resistant line, SYBR Green, dry powder (AID 1159571); type: functional, cell-based;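 note: parasites synchronized at ring stage by sorbitol before testing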
# [7] = Luminescence Cell-Based Dose Response to Identify Activators of 5'UTR Stem-Loop Driven Prion Protein mRNA Translation in H4-C Neuroglioblastoma Cells. [Related pubchem assays: 1829 (Project Summary), 1814 (Primary HTS)]; type: functional
# [8] = Luminescence Cell-Based Dose Response HTS to Identify Activators of Luciferase Translation or Activity in H4 […] Cells. [Related pubchem assays: 1829 (Project Summary), 1814 (Primary HTS)]; type: functional
# [9] = Luminescence Cell-Based Dose Response to Identify Activators of Luciferase Translation or Activity in H4-C Neuroglioblastoma Cells. [Related pubchem assays: 1829 (Project Summary), 1814 (Primary HTS)]; type: functional
# [10] = Luminescence Cell-Based Dose Confirmation to Identify Activators of 5'UTR Stem-Loop Driven Alpha-Synuclein mRNA Translation in H4 Neuroglioblastoma Cells. [Related pubchem assays: 1829 (Project Summary), 1814 (Primary HTS)]; type: functional
# H4 = assay: Luminescence Cell-Based Dose Response HTS to Identify Activators of 5'UTR Stem-Loop Driven Prion Protein mRNA Translation in H4 Neuroglioblastoma Cells. [Related pubchem assays: 1829 (Project Summary), 1814 (Primary HTS)]; type: functional; conditions: Homo sapiens
# [11] = Concentration-dependent survival of SW480 colon cancer line, luminescence detection with CellTiter-Glo, half-maximal inhibitory concentration (AID 1117338); type: functional
# [12] = RKO cell viability reduction, dose response, CellTiter-Glo luminescence (AID 1117322); type: functional
# [13] = cytotoxicity toward HCT116 cells – cell-based, CellTiter-Glo luminescence, IC50, dose response (AID 1117332); type: functional; conditions: HCT-116
# [14] = SNU-C1 cell viability reduction, dose response, CellTiter-Glo luminescence (AID 1117323); type: functional, cell-based
# [15] = cytotoxicity toward Colo320 cells – cell-based, CellTiter-Glo luminescence, IC50, dose response (AID 1117334); type: functional; conditions: COLO 320
# [16] = cytotoxicity toward HT-29 cells – cell-based, CellTiter-Glo luminescence, IC50, dose response (AID 1117330); type: functional
# [17] = CellTiter-Glo luminescent dose response of DLD-1 viability loss (AID 1117352); type: functional
# [18] = HCT116 cell viability decrease, GSK3B pretreatment – CellTiter-Glo, IC50, dose response (AID 1117339); type: functional; conditions: HCT-116
# [19] = Artemis endonuclease inhibitor potency, dose response, biochemical, fluorescence intensity (AID 720701); type: functional;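 note: Artemis endonuclease enzyme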
# [20] = target: G-protein coupled receptor 183 (Homo sapiens, UniProt P32249); assay: SAR confirmation of small molecule antagonists of the EBI2 receptor via a luminescent beta-arrestin assa.; type: functional
# Chain of G-protein coupled receptor 183 (P32249 whole entry): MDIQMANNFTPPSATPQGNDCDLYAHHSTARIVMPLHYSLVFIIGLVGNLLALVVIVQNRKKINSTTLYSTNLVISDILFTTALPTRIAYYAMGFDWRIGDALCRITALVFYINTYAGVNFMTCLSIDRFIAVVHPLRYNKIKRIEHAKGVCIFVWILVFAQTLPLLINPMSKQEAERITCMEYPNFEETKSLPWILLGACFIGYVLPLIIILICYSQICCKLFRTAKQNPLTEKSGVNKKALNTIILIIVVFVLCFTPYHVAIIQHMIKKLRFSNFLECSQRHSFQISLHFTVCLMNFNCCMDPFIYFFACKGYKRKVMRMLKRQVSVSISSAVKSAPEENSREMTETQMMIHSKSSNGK
smiles,measurement,setting,value
O=C(COc1ccc2c(c1)OCO2)Nc1ccc(Cl)cn1,AC50,[1],> 30 µM (inactive)
COc1cccc(CN2[C@H](CO)[C@@H](c3ccccc3)C23CN(Cc2ccccc2OC)C3)c1,AC50,[2],0.999 µM (active)
same,AC50,[3],23.9 µM (active)
same,AC50,[4],1.31 µM (active)
same,AC50,[5],0.47 µM (active)
same,AC50,[6],0.875 µM (active)
COc1ccc(C(=O)/N=c2\sc3c(C)ccc(OC)c3n2C)cc1OC,EC50,[7],0.484 µM (active)
same,EC50,[8],< 0.1 µM (inconclusive)
same,EC50,[9],0.405 µM (active)
same,EC50,[10],0.256 µM (active)
COc1ccc(S(=O)(=O)N(C)C[C@H]2Oc3ccc(NC(=O)Cc4cn(C)c5ccccc45)cc3C(=O)N([C@H](C)CO)C[C@@H]2C)cc1,AC50,[4],0.39 µM (active)
Cc1ccc(-n2c(C)cc(/C=C3\SC(=O)NC3=O)c2C)cc1,EC50,[7],0.512 µM (active)
same,EC50,[8],< 0.1 µM (inconclusive)
same,EC50,H4,0.749 µM (active)
same,EC50,[9],0.401 µM (active)
same,EC50,[10],0.344 µM (active)
CCOC(=O)[C@H](CCc1ccccc1)N[C@@H](C)C(=O)N1C(=O)N(C)C[C@H]1C(=O)O,IC50,[11],> 20 µM (inactive)
same,IC50,[12],> 20 µM (inactive)
same,IC50,[13],> 20 µM (inactive)
same,IC50,[14],> 20 µM (inactive)
same,IC50,[15],> 20 µM (inactive)
same,IC50,[16],> 20 µM (inactive)
same,IC50,[17],> 20 µM (inactive)
same,IC50,[18],> 20 µM (inactive)
COc1ccc(C2CC(c3ccc(Cl)cc3)Nc3nc(NC(=O)c4ccco4)nn32)cc1 (stereo unspecified),IC50,[19],11.8 µM (active)
Cc1ccc(CN2CCN(C(=O)/C=C/c3ccc(Br)cc3)CC2)cc1,IC50,[20],0.00177 µM (active)
